Test results published in the supplement of paper PMC10307832.

Compound: C1CN(CCN1)C2=CC=C(C=C2)C3=CN4C(=C(C=N4)C5=CC=NC6=CC=CC=C56)N=C3 [DM3189] + O=C(CCCCCCC(=O)Nc1ccccc1)NO [Vorinostat] (partner 1 µM)
Test: relative viability (nuclei count vs DMSO), 5 days (fraction); higher = more cells survive
Method in brief: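 Relative viability divides the nuclei count in treated wells by that in vehicle wells. Lung cancer cell lines were seeded in 1536-well plates, dosed by pin tool the next day, and fixed and stained after 5 days in one step with final 0.05% Triton X-100, 1% formaldehyde and 1 ug/ml Hoechst. Dosing was a single drug or a fixed anchor-drug dose plus five library-drug doses (not always all listed) in √10 steps, and values are medians of duplicate plates imaged at 4×.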

Row | Cell Line | relative viability (first compound 0.08 µM) | relative viability (first compound 0.253 µM) | relative viability (first compound 0.8 µM) | relative viability (first compound 2.53 µM)
1 | 201T | 1.03 | 0.899 | 0.943 | 1.12
2 | A-427 | 0.941 | 0.791 | 0.801 | 0.816
3 | ABC-1 | 1.53 | 0.9 | 1.04 | 0.907
4 | BEN | 0.609 | 0.547 | 0.541 | 0.636
5 | CAL-12T | 0.683 | 0.785 | 0.878 | 0.743
6 | COR-L23 | 0.454 | 0.537 | 0.387 | 0.37
7 | COR-L 105 | 0.867 | 0.73 | 0.835 | 0.803
8 | ChaGo-K-1 | 0.872 | 0.771 | 0.703 | 0.746
9 | EKVX | 0.856 | 0.72 | 0.678 | 0.62
10 | EMC-BAC-2 | 0.53 | 0.439 | 0.477 | 0.741
11 | EPLC-272H | 0.386 | 0.517 | 0.247 | 0.402
12 | H3255 | 1.11 | 0.826 | 0.845 | 0.89
13 | HARA | 0.596 | 0.539 | 0.606 | 0.622
14 | HCC-15 | 1.03 | 0.803 | 0.732 | 0.815
15 | HCC-44 | 1.08 | 1.14 | 0.921 | 1.08
16 | HCC-78 | 0.41 | 0.453 | 0.51 | 0.557
17 | HCC-366 | 0.363 | 0.285 | 0.191 | 0.41
18 | HCC-827 | 1.04 | 0.821 | 0.876 | 0.681
19 | HOP-62 | 0.566 | 0.702 | 0.573 | 0.66
20 | IA-LM | 0.962 | 1.11 | 1.1 | 1.04
21 | LC-2-ad | 0.744 | 0.7 | 0.663 | 0.723
22 | LCLC-97TM1 | 0.73 | 0.647 | 0.687 | 0.751
23 | LCLC-103H | 0.816 | 0.8 | 0.734 | 0.744
24 | LK-2 | 0.292 | 0.273 | 0.213 | 0.227

Row | Cell Line | relative viability (first compound 0.08 µM) | relative viability (first compound 0.253 µM) | relative viability (first compound 0.8 µM) | relative viability (first compound 2.53 µM)
25 | LOU-NH91 | 1.15 | 0.891 | 0.71 | 0.91
26 | LU99A | 0.492 | 0.434 | – | 0.458
27 | LXF-289 | 0.759 | 0.829 | 0.663 | 0.757
28 | NCI-H23 | 0.668 | 0.51 | 0.564 | 0.539
29 | NCI-H322M | 0.97 | 0.874 | 0.783 | 0.791
30 | NCI-H358 | 0.746 | 0.585 | 0.628 | 0.595
31 | NCI-H441 | 0.879 | 0.772 | 0.885 | 0.674
32 | NCI-H460 | 1.02 | 0.725 | 0.654 | 0.862
33 | NCI-H520 | 0.712 | 0.633 | 0.57 | 0.292
34 | NCI-H522 | 1.1 | 0.832 | 0.855 | 0.988
35 | NCI-H596 | 0.606 | 0.669 | 0.605 | 0.756
36 | NCI-H647 | 0.624 | 0.531 | 0.562 | 0.343
37 | NCI-H650 | 0.391 | 0.501 | 0.383 | 0.428
38 | NCI-H661 | 0.826 | 0.796 | 0.809 | 0.883
39 | NCI-H727 | 1.43 | 1.05 | 0.972 | 1.13
40 | NCI-H838 | 0.757 | 0.675 | 0.65 | 0.733
41 | NCI-H1355 | 0.64 | 0.636 | 0.504 | 0.565
42 | NCI-H1395 | 1.08 | 0.616 | – | 0.731
43 | NCI-H1437 | 0.917 | 0.916 | 0.843 | 1.05
44 | NCI-H1650 | 0.505 | 0.539 | 0.638 | 0.644
45 | NCI-H1651 | 0.657 | 0.587 | 0.549 | 0.629
46 | NCI-H1666 | 1.04 | 1.02 | 1.09 | –
47 | NCI-H1734 | 0.842 | 0.805 | 0.718 | 0.59
48 | NCI-H1755 | 0.771 | 0.659 | 0.695 | 0.685

Row | Cell Line | relative viability (first compound 0.08 µM) | relative viability (first compound 0.253 µM) | relative viability (first compound 0.8 µM) | relative viability (first compound 2.53 µM)
49 | NCI-H1793 | 0.993 | 0.633 | 0.911 | 1.12
50 | NCI-H1915 | 0.49 | 0.508 | 0.383 | 0.482
51 | NCI-H1944 | 0.592 | 0.567 | 0.467 | 0.565
52 | NCI-H1975 | 0.803 | 0.732 | 0.701 | 0.687
53 | NCI-H1993 | 0.856 | 0.803 | 0.813 | 0.854
54 | NCI-H2009 | 0.705 | 0.647 | 0.733 | 0.888
55 | NCI-H2023 | 0.688 | 0.618 | 0.603 | 0.604
56 | NCI-H2085 | 0.87 | 0.742 | 0.795 | 0.906
57 | NCI-H2087 | 0.63 | 0.49 | 0.682 | 0.471
58 | NCI-H2126 | 0.998 | 0.769 | 0.742 | 0.705
59 | NCI-H2170 | 0.921 | 0.811 | 0.725 | 0.658
60 | NCI-H2228 | 0.541 | 0.773 | 0.593 | 0.279
61 | NCI-H2347 | 0.554 | 0.626 | 0.61 | 0.658
62 | NCI-H2405 | 1.16 | 1 | 0.942 | 0.992
63 | NCI-H3122 | 0.992 | 0.74 | 0.841 | 1.11
64 | PC-3 [JPC-3] | 1.08 | 0.736 | 0.921 | 0.898
65 | PC-14 | 0.733 | 0.7 | 0.674 | 0.533
66 | RERF-LC-KJ | 0.858 | 0.729 | 0.661 | 0.715
67 | SK-LU-1 | 0.742 | 0.749 | 0.728 | 0.598
68 | SK-MES-1 | 1.34 | 1.01 | 0.787 | 0.875
69 | SW 900 | 0.469 | – | 0.442 | 0.383
70 | SW 1573 | 0.786 | 0.761 | 0.633 | 0.337
71 | UMC-11 | 0.356 | 0.349 | 0.358 | 0.281
